Patent publication US9149038B2, “4-amino-6-(heterocyclic)picolinates and 6-amino-2-(heterocyclic)pyrimidine-4-carboxylates and their use as herbicides” (Dow AgroSciences LLC, priority 2013, dated 2015)
Like-named read-outs stand apart in the source and are kept apart here.

Columns and labels:
[1] = test system: Key Broadleaf Weed and Crop Species; assay: Post-Emergent Test II: postemergent herbicidal activity, visual rating after 14 d (Table 7); format: in vivo; conditions: post-emergence, 336 h; for pest or weed control at 35 g/ha: 35 g ai/ha; for pest or weed control at 70 g/ha: 70 g ai/ha; for pest or weed control at 140 g/ha: 140 g ai/ha; for pest or weed control at 280 g/ha: 280 g ai/ha
In short: (§1)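 Greenhouse-grown plants at the first or second true leaf stage (7-21 d, ~15 h photoperiod, 23-29° C day) were sprayed with compound in acetone/DMSO-based aqueous spray containing crop oil concentrate and Triton X-155 at 187 L/ha. Injury versus untreated plants was rated visually after 14 d on a 0-100 scale.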

[2] = test system: Key Grass and Sedge Weeds as well as Grass Crops; assay: Post-Emergent Test II: postemergent herbicidal activity, visual rating after 14 d (Table 8); format: in vivo; conditions: post-emergence, 336 h; for pest or weed control at 35 g/ha: 35 g ai/ha; for pest or weed control at 70 g/ha: 70 g ai/ha; for pest or weed control at 140 g/ha: 140 g ai/ha; for pest or weed control at 280 g/ha: 280 g ai/ha
In short: as §1

[3] = lambsquarters (Chenopodium album), read-out: Visual Growth Reduction (%) 14 Days After Application CHEAL
[4] = oilseed rape, canola (Brassica napus), read-out: Visual Growth Reduction (%) 14 Days After Application BRSNN
[5] = redroot pigweed (Amaranthus retroflexus), read-out: Visual Growth Reduction (%) 14 Days After Application AMARE
[6] = sunflower (Helianthus annuus), read-out: Visual Growth Reduction (%) 14 Days After Application HELAN
[7] = velvetleaf (Abutilon theophrasti), read-out: Visual Growth Reduction (%) 14 Days After Application ABUTH
[8] = wild poinsettia (Euphorbia heterophylla), read-out: Visual Growth Reduction (%) 14 Days After Application EPHHL
[9] = barnyardgrass (Echinochloa crus-galli), read-out: Visual Growth Reduction (%) 14 Days After Application ECHCG
[10] = giant foxtail (Setaria faberi), read-out: Visual Growth Reduction (%) 14 Days After Application SETFA
[11] = maize, corn (Zea mays), read-out: Visual Growth Reduction (%) 14 Days After Application ZEAMX
[12] = rice (Oryza sativa), read-out: Visual Growth Reduction (%) 14 Days After Application ORYSA
[13] = wheat, spring (Triticum aestivum), read-out: Visual Growth Reduction (%) 14 Days After Application TRZAS
[14] = yellow nutsedge (Cyperus esculentus), read-out: Visual Growth Reduction (%) 14 Days After Application CYPES

SMILES: Nc1nc(-c2cc3c(cc2F)OC(F)(F)O3)nc(C(=O)O)c1Cl [Compound 57]
- pest or weed control at 35 g/ha [1, 3]: 0 to 29%
- pest or weed control at 70 g/ha [1, 3]: 0 to 29%
- pest or weed control at 140 g/ha [1, 3]: 0 to 29%
- pest or weed control at 35 g/ha [1, 4]: 0 to 29%
- pest or weed control at 70 g/ha [1, 4]: 0 to 29%
- pest or weed control at 140 g/ha [1, 4]: 0 to 29%
- pest or weed control at 35 g/ha [1, 5]: 0 to 29%
- pest or weed control at 70 g/ha [1, 5]: 0 to 29%
- pest or weed control at 140 g/ha [1, 5]: 85 to 94%
- pest or weed control at 35 g/ha [1, 6]: 45 to 59%
- pest or weed control at 70 g/ha [1, 6]: 85 to 94%
- pest or weed control at 140 g/ha [1, 6]: 95 to 100%
- pest or weed control at 35 g/ha [1, 7]: 0 to 29%
- pest or weed control at 70 g/ha [1, 7]: 0 to 29%
- pest or weed control at 140 g/ha [1, 7]: 0 to 29%
- pest or weed control at 35 g/ha [1, 8]: 0 to 29%
- pest or weed control at 70 g/ha [1, 8]: 60 to 74%
- pest or weed control at 140 g/ha [1, 8]: 95 to 100%
- pest or weed control at 35 g/ha [2, 9]: 85 to 94%
- pest or weed control at 70 g/ha [2, 9]: 95 to 100%
- pest or weed control at 140 g/ha [2, 9]: 95 to 100%
- pest or weed control at 35 g/ha [2, 10]: 45 to 59%
- pest or weed control at 70 g/ha [2, 10]: 0 to 29%
- pest or weed control at 140 g/ha [2, 10]: 45 to 59%
- pest or weed control at 35 g/ha [2, 11]: 0 to 29%
- pest or weed control at 70 g/ha [2, 11]: 30 to 44%
- pest or weed control at 140 g/ha [2, 11]: 45 to 59%
- pest or weed control at 35 g/ha [2, 12]: 0 to 29%
- pest or weed control at 70 g/ha [2, 12]: 0 to 29%
- pest or weed control at 140 g/ha [2, 12]: 0 to 29%
- pest or weed control at 35 g/ha [2, 13]: 0 to 29%
- pest or weed control at 70 g/ha [2, 13]: 0 to 29%
- pest or weed control at 140 g/ha [2, 13]: 30 to 44%
- pest or weed control at 35 g/ha [2, 14]: 0 to 29%
- pest or weed control at 70 g/ha [2, 14]: 0 to 29%
- pest or weed control at 140 g/ha [2, 14]: 0 to 29%

SMILES: COC(=O)c1nc(-c2cccc3c2OCO3)c(F)c(N)c1Cl [Compound 71, Methyl 4-amino-6-(benzo[d][1,3]dioxol-4-yl)-3-chloro-5-fluoropicolinate]
- pest or weed control at 35 g/ha [1, 3]: 95 to 100%
- pest or weed control at 70 g/ha [1, 3]: 95 to 100%
- pest or weed control at 140 g/ha [1, 3]: 95 to 100%
- pest or weed control at 280 g/ha [1, 3]: 95 to 100%
- pest or weed control at 35 g/ha [1, 4]: 30 to 44%
- pest or weed control at 70 g/ha [1, 4]: 85 to 94%
- pest or weed control at 140 g/ha [1, 4]: 85 to 94%
- pest or weed control at 280 g/ha [1, 4]: 95 to 100%
- pest or weed control at 35 g/ha [1, 5]: 60 to 74%
- pest or weed control at 70 g/ha [1, 5]: 95 to 100%
- pest or weed control at 140 g/ha [1, 5]: 95 to 100%
- pest or weed control at 280 g/ha [1, 5]: 95 to 100%
- pest or weed control at 35 g/ha [1, 6]: 85 to 94%
- pest or weed control at 70 g/ha [1, 6]: 95 to 100%
- pest or weed control at 140 g/ha [1, 6]: 95 to 100%
- pest or weed control at 280 g/ha [1, 6]: 95 to 100%
- pest or weed control at 35 g/ha [1, 7]: 60 to 74%
- pest or weed control at 70 g/ha [1, 7]: 75 to 84%
- pest or weed control at 140 g/ha [1, 7]: 95 to 100%
- pest or weed control at 280 g/ha [1, 7]: 95 to 100%
- pest or weed control at 35 g/ha [1, 8]: 0 to 29%
- pest or weed control at 70 g/ha [1, 8]: 0 to 29%
- pest or weed control at 140 g/ha [1, 8]: 0 to 29%
- pest or weed control at 280 g/ha [1, 8]: 0 to 29%
- pest or weed control at 35 g/ha [2, 9]: 0 to 29%
- pest or weed control at 70 g/ha [2, 9]: 0 to 29%
- pest or weed control at 140 g/ha [2, 9]: 0 to 29%
- pest or weed control at 280 g/ha [2, 9]: 0 to 29%
- pest or weed control at 35 g/ha [2, 10]: 0 to 29%
- pest or weed control at 70 g/ha [2, 10]: 0 to 29%
- pest or weed control at 140 g/ha [2, 10]: 0 to 29%
- pest or weed control at 280 g/ha [2, 10]: 0 to 29%
- pest or weed control at 35 g/ha [2, 11]: 0 to 29%
- pest or weed control at 70 g/ha [2, 11]: 0 to 29%
- pest or weed control at 140 g/ha [2, 11]: 0 to 29%
- pest or weed control at 280 g/ha [2, 11]: 0 to 29%
- pest or weed control at 35 g/ha [2, 12]: 0 to 29%
- pest or weed control at 70 g/ha [2, 12]: 0 to 29%
- pest or weed control at 140 g/ha [2, 12]: 0 to 29%
- pest or weed control at 280 g/ha [2, 12]: 0 to 29%
- pest or weed control at 35 g/ha [2, 13]: 0 to 29%
- pest or weed control at 70 g/ha [2, 13]: 0 to 29%
- pest or weed control at 140 g/ha [2, 13]: 0 to 29%
- pest or weed control at 280 g/ha [2, 13]: 0 to 29%
- pest or weed control at 35 g/ha [2, 14]: 0 to 29%
- pest or weed control at 70 g/ha [2, 14]: 0 to 29%
- pest or weed control at 140 g/ha [2, 14]: 30 to 44%
- pest or weed control at 280 g/ha [2, 14]: 45 to 59%
